Measured values: patent US10383868B2, “Quinoline containing compounds and their use for treating endoplasmic reticulum stress-related diseases” (priority 2015, dated 2019)
pEC50: −log10 of the molar value.

Experiments:
SERCA = assay: Activation of SERCA, NADH-linked, enzyme-coupled ATPase assay with SR vesicles; type: biochemical; details: concentration required for 50% activation of the maximum Vmax, pH 7.0, 5 mM ATP
Method: Test compounds were characterized over a range of concentrations using an NADH-linked, enzyme-coupled ATPase assay. Each well contained […] of SR vesicles (optimized for skeletal or cardiac SR, respectively), 50 mM MOPS (pH 7.0), 100 mM KCl, 5 mM MgCl2, 1 mM EGTA, 0.2 mM NADH, 1 mM phosphoenol pyruvate, 5 IU pyruvate kinase, 5 IU lactate dehydrogenase, and […] A23187 (a calcium ionophore), and CaCl2 was added to set free [Ca^2+] to the specific values. The assay was started upon addition of ATP at a final concentration of 5 mM, and read in a SpectraMax Plus microplate spectrophotometer and the ATPase activities were fitted using the Hill function. EC50 values were determined as the concentrations of the test compounds that were required for 50% activation of the maximum Vmax.

Ob/ob mice = assay: Effect of a SERCA agonist on the level of blood glucose in ob/ob mice; type: in vivo; details: n=3; for Blood Glucose Day 0: Day 0 (baseline), fasting glucose, 50 mg/kg i.p. group; for Blood Glucose Day 4: Day 4, fasting glucose, 50 mg/kg i.p. once a day
Method: Ob/ob mice (10 weeks old, n=3) are intraperitoneally (i.p.) injected with 100 μL of a solution containing 0 (vehicle), 10 or 50 mg/kg of a test compound once a day for a total of 5 days. Fasting glucose is measured at baseline and 10 hrs after the administration of the test compound. Glucose levels are measured in blood samples drawn from the tail vein using the OneTouch Ultra 2 Meter (LifeScan, Inc.).

| pEC50 (SERCA) | Compound | Blood Glucose Day 0 (Ob/ob mice) [mg/dL] | Blood Glucose Day 4 (Ob/ob mice) [mg/dL] |
| --- | --- | --- | --- |
| 6.22 | Cc1ccc2cccc(C(=O)Nc3ccc(OC(C)C)cc3)c2n1 [Compound A1, N-(4-Isopropoxyphenyl)-2-methylquinoline-8-carboxamide] | 319 | 348 |
| 5.92 | Cc1ccc2cccc(C(=O)Nc3cc(Br)cs3)c2n1 [Compound B1] | 318 | 333 |
| 6.00 | Cc1ccc2cccc(C(=O)Nc3ccc(Br)s3)c2n1 [Compound B2] | 320 | 215 |
